According to ChEMBL document CHEMBL1201862, “PubChem BioAssay data set” (2004):
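The compound was tested at five concentrations on cells cultured in 96-well plates, with a 48-hour exposure period. GI50 = concentration required for 50% inhibition of growth.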 Activity calls are given as the source filed them. No stated cut-off is given here; in the data, active = GI50 up to about 1.1 µM and inactive = higher.

Assays:
Experiment in all cases: inhibition of tumour cell growth, NCI panel, 48 h
[1] = test system: SK-MEL-2
[2] = test system: SW-620
[3] = test system: RXF 393
[4] = test system: OVCAR-5
[5] = test system: HOP-92
[6] = test system: SF-539
[7] = test system: SK-OV-3
[8] = test system: 786-0
[9] = test system: SNB-19
[10] = test system: SF-268
[11] = test system: SK-MEL-5
[12] = test system: UO-31
[13] = test system: HL-60
[14] = test system: PC-3
[15] = test system: TK-10
[16] = test system: M14
[17] = test system: HCT-15
[18] = test system: NCI-H226
[19] = test system: A498
[20] = test system: SR

SMILES	GI50 [1]	GI50 [2]	GI50 [3]	GI50 [4]	GI50 [5]	GI50 [6]	GI50 [7]	GI50 [8]	GI50 [9]	GI50 [10]	GI50 [11]	GI50 [12]	GI50 [13]	GI50 [14]	GI50 [15]	GI50 [16]	GI50 [17] [µM]	GI50 [18]	GI50 [19]	GI50 [20]
Cc1csc2nc(-c3ccc(Cl)c([N+](=O)[O-])c3)c(/C=N/NC(=N)N)n12	1.22 µM (inactive)	0.384 µM (active)	1.63 µM (inactive)	1.21 µM (inactive)	0.163 µM (active)	1.61 µM (inactive)	1.84 µM (inactive)	1.49 µM (inactive)	1.3 µM (inactive)	1.71 µM (inactive)	1.52 µM (inactive)	1.12 µM (inactive)	1.7 µM (inactive)	1.48 µM (inactive)	2.2 µM (inactive)	1.74 µM (inactive)	1.66	1.67 µM (inactive)	1.51 µM (inactive)	
CCOC(=O)c1nc2ccc(C(F)(F)F)cc2nc1Oc1cc(OC)cc(OC)c1	> 100 µM (inactive)	> 100 µM (inactive)	> 100 µM (inactive)	> 100 µM (inactive)	40.1 µM (inactive)	57.1 µM (inactive)	> 100 µM (inactive)	> 100 µM (inactive)	68.9 µM (inactive)	93.3 µM (inactive)	29 µM (inactive)	> 100 µM (inactive)	> 100 µM (inactive)	> 100 µM (inactive)	> 100 µM (inactive)	> 100 µM (inactive)	> 100	67.8 µM (inactive)	> 100 µM (inactive)	
CC1=C([S+]([O-])c2ccc(C)cc2)CCC2(CCCCO2)O1 (centres undefined)	64.3 µM (inactive)	> 100 µM (inactive)	> 100 µM (inactive)	> 100 µM (inactive)				> 100 µM (inactive)	> 100 µM (inactive)	> 100 µM (inactive)	33.3 µM (inactive)	> 100 µM (inactive)	23.3 µM (inactive)	> 100 µM (inactive)	> 100 µM (inactive)		> 100	> 100 µM (inactive)	> 100 µM (inactive)	
N#C/C(=C\c1ccccc1)C(NO)Nc1ccccc1 (centres undefined)	> 100 µM (inactive)	74.8 µM (inactive)	41.5 µM (inactive)	> 100 µM (inactive)	57.3 µM (inactive)	70.3 µM (inactive)	> 100 µM (inactive)	> 100 µM (inactive)	60.4 µM (inactive)	65.3 µM (inactive)	53.6 µM (inactive)	68.7 µM (inactive)	> 100 µM (inactive)		> 100 µM (inactive)	> 100 µM (inactive)	79.8	> 100 µM (inactive)	80.2 µM (inactive)	20.1 µM (inactive)
Cc1cc2c(cc1Cl)SC(NN(C)C)=NS2(=O)=O	> 10 µM (inactive)	> 10 µM (inactive)	> 10 µM (inactive)	> 10 µM (inactive)		> 10 µM (inactive)	> 10 µM (inactive)	> 10 µM (inactive)	> 10 µM (inactive)	> 10 µM (inactive)	> 10 µM (inactive)		> 10 µM (inactive)	> 10 µM (inactive)	> 10 µM (inactive)	> 10 µM (inactive)	> 10	> 10 µM (inactive)	> 10 µM (inactive)	
